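Grown in 96-well plates, cells were treated for 48 hours with each compound at five concentrations. Insufficient inhibition: endpoint recorded as highest concentration tested. GI50: concentration for 50% inhibition of growth.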 Calls of active or inactive are those of the source. No stated cut-off is given here; in the data, active = GI50 up to about 1.1 µM and inactive = higher.
Columns and labels:
Experiment in all cases: NCI-60 cell line screen, 48 h
[1] = tested on: DMS-114
[2] = tested on: XF498
[3] = tested on: M19-MEL
[4] = tested on: PC-3
[5] = tested on: MDA-MB-435
[6] = tested on: Hs-578T
[7] = tested on: LXFL 529

Structure (SMILES)	GI50 [1]	GI50 [2]	GI50 [3]	GI50 [4]	GI50 [5]	GI50 [6]	GI50 [7]
O=C1CCCCN1	> 1120 µM (inactive)	89.3 µM (inactive)	> 403 µM (inactive)	–	–	–	–
O=NN1C(c2ccccc2)CNC(=O)CC1c1ccccc1 (stereo unspecified)	22.7 µM (inactive)	–	50.1 µM (inactive)	–	–	–	–
COc1ccc(-c2c3c(nc4nc(SC)nc(SC)c24)CCCC3)cc1OC	–	–	–	60 µM (inactive)	54.3 µM (inactive)	19.1 µM (inactive)	–
NC12CCC(CC1=O)C2 (stereo unspecified)	–	–	–	> 100 µM (inactive)	> 100 µM (inactive)	> 100 µM (inactive)	–
CC(=O)N1N=C(c2ccc3ccccc3c2O)CC1c1cccs1 (stereo unspecified)	–	–	–	11.1 µM (inactive)	18 µM (inactive)	28.6 µM (inactive)	–
COc1ccc(C[C@H](N)C(=O)N2C[C@H](CO)C[C@H](n3cnc4c(N(C)C)ncnc43)C2)cc1	> 100 µM (inactive)	–	> 100 µM (inactive)	–	–	–	> 100 µM (inactive)
O=c1cc(-c2nc3ccccc3[nH]2)[nH]c2nc(-c3nc4ccccc4[nH]3)cc(-c3ccc(Cl)cc3)c12	–	–	–	19.5 µM (inactive)	15.7 µM (inactive)	30.5 µM (inactive)	–
O=C1CSC(C(/N=N/c2ccc(Cl)cc2)c2nc3ccccc3[nH]2)=N1 (stereo unspecified)	26.2 µM (inactive)	17.8 µM (inactive)	85.7 µM (inactive)	–	–	–	52.6 µM (inactive)
COC1C(=[N+]=[N-])C(=O)NC(=O)N1C1OC(COC(c2ccccc2)(c2ccccc2)c2ccccc2)C(O)C1O (stereo unspecified)	–	–	19.4 µM (inactive)	–	–	–	17.6 µM (inactive)

Source: ChEMBL document CHEMBL1201862, “PubChem BioAssay data set” (2004)
